Reference: patent US8232269B2, “Amide compounds useful in therapy” (Pfizer Inc., priority 2008, dated 2012)
Structures can show the parent of a compound that is named as a salt.

Biological target: T1, Progesterone Receptor (PR) (Homo sapiens, UniProt P06401)
T1 construct: endogenous in cells; host or cells: T47D human breast mammary carcinoma cells
T1 sequence (P06401 1-933): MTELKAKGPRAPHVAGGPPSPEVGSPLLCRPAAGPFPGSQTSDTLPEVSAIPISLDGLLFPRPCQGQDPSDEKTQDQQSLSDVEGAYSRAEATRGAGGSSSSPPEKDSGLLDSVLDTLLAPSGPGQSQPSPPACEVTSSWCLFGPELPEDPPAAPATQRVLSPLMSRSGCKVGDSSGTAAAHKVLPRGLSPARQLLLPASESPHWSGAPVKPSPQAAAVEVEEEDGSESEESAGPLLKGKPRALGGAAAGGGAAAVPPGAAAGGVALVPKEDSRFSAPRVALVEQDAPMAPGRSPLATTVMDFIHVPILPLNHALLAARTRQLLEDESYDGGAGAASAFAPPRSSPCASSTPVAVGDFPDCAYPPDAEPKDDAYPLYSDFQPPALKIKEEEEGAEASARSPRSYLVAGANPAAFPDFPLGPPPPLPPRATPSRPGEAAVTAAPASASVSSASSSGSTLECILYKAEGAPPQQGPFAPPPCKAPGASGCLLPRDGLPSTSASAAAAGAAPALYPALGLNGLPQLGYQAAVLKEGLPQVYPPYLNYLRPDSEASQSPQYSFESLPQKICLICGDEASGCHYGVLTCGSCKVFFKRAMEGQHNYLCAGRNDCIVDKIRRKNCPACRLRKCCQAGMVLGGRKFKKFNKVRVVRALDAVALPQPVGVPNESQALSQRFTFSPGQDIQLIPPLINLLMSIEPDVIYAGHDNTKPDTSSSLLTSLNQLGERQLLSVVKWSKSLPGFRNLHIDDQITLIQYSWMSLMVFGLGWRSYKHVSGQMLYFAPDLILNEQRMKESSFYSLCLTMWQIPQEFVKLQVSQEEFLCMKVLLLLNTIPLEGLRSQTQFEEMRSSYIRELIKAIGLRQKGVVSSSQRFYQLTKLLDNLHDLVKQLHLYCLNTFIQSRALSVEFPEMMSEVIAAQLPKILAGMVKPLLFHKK
Experiment: In vitro functional assay for progesterone receptor (PR) antagonists: inhibition of progesterone-induced alkaline phosphatase expression in T47D cells
Assay type: cell-based
Settings: antagonist format, 5 nM progesterone, Ki calculated from IC50 with the Cheng-Prusoff equation
From the text: 1.0 In vitro Functional Assay for Progesterone Receptor (PR) Antagonists, Agonists and Modulators
The assay for PR antagonism takes advantage of the extensively reported modulation of alkaline phosphatase (AP) expression in human breast T47D mammary carcinoma cells {Beck et al., D. P. (1993). The progesterone antagonist RU486 acquires agonist activity upon stimulation of cAMP signalling pathways. Proc Natl Acad Sci USA 90, 4441-4445; Fensome et al. (2002). New progesterone receptor antagonists: 3,3-disubstituted-5-aryloxindoles. Bioorg Med Chem Lett 12, 3487-3490; Zhang et al., (2002a). 6-Aryl-1,4-dihydro-benzo d1,3oxazin-2-ones: a novel class of potent, selective, and orally active nonsteroidal progesterone receptor antagonists. Journal of Medicinal Chemistry 45, 4379-4382; Zhang et al., (2003). Novel 6-aryl-1,4-dihydrobenzo d oxazine-2-thiones as potent, selective, and orally active nonsteroidal progesterone receptor agonists. Bioorganic & Medicinal Chemistry Letters 13, 1313-1316; Zhang et al., (2002b). Potent nonsteroidal progesterone receptor agonists: synthesis and SAR study of 6-aryl benzoxazines. Bioorganic & Medicinal Chemistry Letters 12, 787-790; Zhang, Z. et al., (2000). In vitro characterization of trimegestone: a new potent and selective progestin. Steroids 65, 637-643}. […] In the absence of progesterone any agonist activity is also observed as an induction of AP activity. By running the assay in two formats (+/−progesterone (P4)), compounds behaving as PR antagonists, agonists, partial agonists or modulators with mixed agonist/antagonist activity can be identified.
Briefly, T47D cells are grown by propagating in DMEM with phenol red+10% FCS+2 mM Glutamine at 37° C./5% CO2. At 70-80% confluence, the media is exchanged for phenol red free DMEM+5% CS-FCS (Assay media). Cells are incubated overnight in assay media then harvested and frozen in assay media containing 10% DMSO at 1.5e7 cells/mL in 2 mL aliquots using a Planer and immediately stored in liquid nitrogen. Vials are removed from liquid nitrogen storage and immediately thawed in a water bath at 37° C. The cell suspension is added dropwise to 20 mL of assay media, then the tube centrifuged at 1000 rpm for 4 minutes, the supernatant is discarded and the pellet re-suspended in 20 mL assay media. T47D cells are then plated at 8750 cells/well in 35 μL assay media in sufficient white solid 384 well TC plates for the assay. For the agonist format assay a further 10 μL of assay media is added to each well. These plates are then cultured for 3-6 hours at 37° C./5% CO2 before compound addition.
Test substances are prepared by in 100% DMSO, half log concentrations from 4 mM in 384 well plates 5 μL/well (referred to here as ‘grandmother plates’). Progesterone is 100 μM made up in ethanol and PBS (i.e. add 1 mL ethanol to progesterone initially to help dissolving) and stored in 0.5-1 mL aliquots at −20° C.
Using a multidrop (Thermolabsystems), 60 μL/well of buffer is added to a 384 well plate—this will be the ‘mother plate’. _Add 45 μL well buffer to grandmother plate using the multidrop (=400 μM 10% DMSO dilution). Mixed and spun to remove air bubbles. • 20 μL is taken from the grandmother plate (400 μM 10% DMSO) and added to the mother plate (=100 μM 2.5% DMSO). Mixed and spun to remove air bubbles Preparation of Max/Min:
Antagonist Min: (Checker Pattern on Plate Map) 1 μM RU-486 (FAC 0.1 μM) • 50 μL of 0.2 mM RU-486 • 10 mL Diluent Addition of Test Substance to Cell Plates • The PlateMate Plus was used to add 5 μL MAX/MIN to cell plates • Then 5 μL test substances are added from the mother plate (after removing max/min PlateMate tips: columns 1 and 24)
Addition of Agonist (5 nM Progesterone FAC) for Antagonist Format Only
25 nM progesterone in assay media is prepared from 100 μM stock (12.5 μL progesterone/50 mL media), from which 10 μL per well is transferred to the assay plate using the PlateMate Plus (already containing cells & compound). […]

Ki	SMILES
18.9 nM	CC(C)n1nc(-c2ccc(C#N)cc2)c(C2CC2)c1C(=O)NCC(C)(C)C [Example 34, 3-(4-Cyanophenyl)-4-cyclopropyl-N-(2,2-dimethylpropyl)-1-isopropyl-1H-pyrazole-5-carboxamide]
19.4 nM	CC(C)n1nc(-c2ccc(C#N)cc2)c(C2CC2)c1C(=O)N[C@H]1CCOC1=O [Example 24, 3-(4-Cyanophenyl)-4-cyclopropyl-1-isopropyl-N-[(3S)-2-oxotetrahydrofuran-3-yl]-1H-pyrazole-5-carboxamide]
208 nM	CC(C)n1nc(-c2ccc(C#N)cc2)c(C2CC(F)(F)C2)c1C(=O)NC1CC1 [Example 98, 3-(4-Cyanophenyl)-N-cyclopropyl-4-(3,3-difluorocyclobutyl)-1-isopropyl-1H-pyrazole-5-carboxamide]
374 nM	CC(C)n1nc(-c2ccc(C#N)cc2)c(Cc2ccccc2)c1C(=O)NC1CC1 [Example 96, 4-Benzyl-3-(4-cyanophenyl)-N-cyclopropyl-1-isopropyl-1H-pyrazole-5-carboxamide]
162 nM	CC(C)n1nc(-c2ccc(C#N)cc2)c(C2CC2)c1C(=O)N[C@@H]1CCNC1 [Example 8, 3-(4-Cyanophenyl)-4-cyclopropyl-1-isopropyl-N-[(3R)-pyrrolidin-3-yl]-1H-pyrazole-5-carboxamide hydrochloride]
8.45 nM	CC(C)n1nc(-c2ccc(C#N)cc2)c(C2CC2)c1C(=O)NCCC1CC1 [Example 54, 3-(4-Cyanophenyl)-4-cyclopropyl-N-(2-cyclopropylethyl)-1-isopropyl-1H-pyrazole-5-carboxamide]
9.73 nM	CC(C)n1nc(-c2ccc(C#N)cc2)c(C2CC2)c1C(=O)NC1CN(C(=O)OC(C)(C)C)C1 [Example 7, tert-Butyl 3-({[3-(4-cyanophenyl)-4-cyclopropyl-1-isopropyl-1H-pyrazol-5-yl]carbonyl}amino)azetidine-1-carboxylate]
7.43 nM	CC(C)n1nc(-c2ccc(C#N)cc2)c(C2CC2)c1C(=O)NC1CCS(=O)(=O)C1 (racemic) [Example 57, (+/−)-3-(4-Cyanophenyl)-4-cyclopropyl-N-(1,1-dioxidotetrahydro-3-thienyl)-1-isopropyl-1H-pyrazole-5-carboxamide]
96.5 nM	CCNC(=O)c1c(C)c(-c2ccc(C#N)cc2)nn1C1CC1 [Example 83, 3-(4-Cyanophenyl)-1-cyclopropyl-N-ethyl-4-methyl-1H-pyrazole-5-carboxamide]
235 nM	CC(C)n1nc(-c2ccc(C#N)cc2)c(C2CC2)c1C(=O)NCC(C)(C)N [Example 29, N-(2-amino-2-methylpropyl)-3-(4-cyanophenyl)-4-cyclopropyl-1-isopropyl-1H-pyrazole-5-carboxamide]
26 nM	CC(C)n1nc(-c2ccc(C#N)cc2)c(C2CC2)c1C(=O)NC1CCOCC1 [Example 43]
6.38 nM	Cc1cc(-c2nn(C(C)C)c(C(=O)NCC(C)(C)O)c2C)ccc1C#N [Example 68, 3-(4-Cyano-3-methylphenyl)-N-(2-hydroxy-2-methylpropyl)-1-isopropyl-4-methyl-1H-pyrazole-5-carboxamide]
5.49 nM	Cc1cc(-c2nn(C(C)C)c(C(=O)NC(C)C)c2C#N)ccc1C#N [Example 123]
36.4 nM	CCc1c(-c2ccc(C#N)cc2)nn(C(C)C)c1C(=O)NC(C)C [Example 117, 3-(4-Cyanophenyl)-4-ethyl-N,1-diisopropyl-1H-pyrazole-5-carboxamide]
11.2 nM	CC[C@@H](C)NC(=O)c1c(C2CC2)c(-c2ccc(C#N)cc2)nn1C(C)C [Example 35, 3-(4-Cyanophenyl)-4-cyclopropyl-1-isopropyl-N-[(1R)-1-methylpropyl]-1H-pyrazole-5-carboxamide]
> 137 nM	Cc1c(-c2ccc(C#N)cc2)nn(C2CC2)c1C(=O)NC[C@H](C)O [Example 86, 3-(4-Cyanophenyl)-1-cyclopropyl-N-[(2S)-2-hydroxypropyl]-4-methyl-1H-pyrazole-5-carboxamide]
42.8 nM	CC(C)C(=O)N1CC(NC(=O)c2c(C3CC3)c(-c3ccc(C#N)cc3)nn2C(C)C)C1 [Example 16, 3-(4-Cyanophenyl)-4-cyclopropyl-N-(1-isobutyrylazetidin-3-yl)-1-isopropyl-1H-pyrazole-5-carboxamide]
6.67 nM	CC(C)n1nc(-c2ccc(C#N)cc2)c(C2CC2)c1C(=O)NCCC(F)(F)F [Example 22, 3-(4-Cyanophenyl)-4-cyclopropyl-1-isopropyl-N-(3,3,3-trifluoropropyl)-1H-pyrazole-5-carboxamide]
71.6 nM	Cc1c(-c2ccc(C#N)cc2)nn(C2CCOC2)c1C(=O)NC[C@H](C)O (mixture of isomers) [Example 78, 3-(4-Cyanophenyl)-N-[(2S)-2-hydroxypropyl]-4-methyl-1-(tetrahydrofuran-3-yl)-1H-pyrazole-5-carboxamide]
17.2 nM	CCC(=O)N1CCC(NC(=O)c2c(C3CC3)c(-c3ccc(C#N)cc3)nn2C(C)C)C1 (stereo in doubt) [Example 12, 3-(4-Cyanophenyl)-4-cyclopropyl-1-isopropyl-N-[(3S)-1-propionylpyrrolidin-3-yl]-1H-pyrazole-5-carboxamide]
17.8 nM	CCc1c(-c2ccc(C#N)cc2)nn(C(C)CC)c1C(=O)NC1CC1 (racemic) [Example 104, (+/−)-1-sec-Butyl-3-(4-cyanophenyl)-N-cyclopropyl-4-ethyl-1H-pyrazole-5-carboxamide]
5.7 nM	CC(C)n1nc(-c2ccc(C#N)cc2)c(C2CC2)c1C(=O)NC1CCOC1 (centres unmarked) [Example 52, 3-(4-Cyanophenyl)-4-cyclopropyl-1-isopropyl-N-(tetrahydrofuran-3-yl)-1H-pyrazole-5-carboxamide]
151 nM	CCNC(=O)c1c(C2CC(F)(F)C2)c(-c2ccc(C#N)cc2)nn1C(C)C [Example 100, 3-(4-Cyanophenyl)-4-(3,3-difluorocyclobutyl)-N-ethyl-1-isopropyl-1H-pyrazole-5-carboxamide]
